# Target: EGFR (human) (UniProt P00533)
# Conditions: a431
# EGFR (human), sequence (P00533 whole entry, looked up): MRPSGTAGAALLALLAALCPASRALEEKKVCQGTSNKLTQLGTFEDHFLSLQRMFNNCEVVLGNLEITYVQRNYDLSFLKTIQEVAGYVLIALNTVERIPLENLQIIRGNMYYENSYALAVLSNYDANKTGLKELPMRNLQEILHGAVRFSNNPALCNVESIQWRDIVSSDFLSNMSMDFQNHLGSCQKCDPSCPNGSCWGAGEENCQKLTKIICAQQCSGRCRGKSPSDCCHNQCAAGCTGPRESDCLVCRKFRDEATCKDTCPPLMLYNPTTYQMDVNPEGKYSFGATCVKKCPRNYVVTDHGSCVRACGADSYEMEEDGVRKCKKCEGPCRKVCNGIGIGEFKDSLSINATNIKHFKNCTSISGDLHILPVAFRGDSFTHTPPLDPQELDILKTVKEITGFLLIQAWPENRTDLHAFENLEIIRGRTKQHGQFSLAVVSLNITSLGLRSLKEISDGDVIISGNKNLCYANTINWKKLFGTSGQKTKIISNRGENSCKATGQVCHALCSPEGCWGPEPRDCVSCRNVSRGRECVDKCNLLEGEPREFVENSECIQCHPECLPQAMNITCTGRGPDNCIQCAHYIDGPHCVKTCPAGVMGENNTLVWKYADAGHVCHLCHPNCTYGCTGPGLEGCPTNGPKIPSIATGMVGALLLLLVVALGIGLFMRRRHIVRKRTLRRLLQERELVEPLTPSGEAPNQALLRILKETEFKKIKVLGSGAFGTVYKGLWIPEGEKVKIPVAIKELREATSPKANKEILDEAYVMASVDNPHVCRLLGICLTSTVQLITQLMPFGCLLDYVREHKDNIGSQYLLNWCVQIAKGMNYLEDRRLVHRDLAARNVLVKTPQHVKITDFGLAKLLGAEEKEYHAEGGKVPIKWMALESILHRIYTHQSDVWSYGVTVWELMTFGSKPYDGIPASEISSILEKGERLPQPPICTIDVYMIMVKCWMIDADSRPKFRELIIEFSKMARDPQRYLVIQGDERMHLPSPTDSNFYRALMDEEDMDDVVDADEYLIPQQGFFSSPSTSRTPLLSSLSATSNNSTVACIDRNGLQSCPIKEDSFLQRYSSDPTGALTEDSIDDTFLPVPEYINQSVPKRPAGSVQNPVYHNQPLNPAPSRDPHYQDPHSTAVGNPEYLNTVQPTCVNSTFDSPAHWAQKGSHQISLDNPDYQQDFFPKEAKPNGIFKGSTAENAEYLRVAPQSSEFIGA
row,IC50,SMILES
1,≤ 5 µM,CN(C)[C@H]1CCN(C(=O)/C=C/c2ccc3c(c2)sc2ncnc(Nc4ccc(OCc5cccc(F)c5)c(Cl)c4)c23)C1
2,≤ 5 µM,CN(C)CCNC(=O)Cc1ccc2c(c1)sc1ncnc(Nc3ccc4c(cnn4Cc4cccc(F)c4)c3)c12
3,≤ 5 µM,Fc1cccc(COc2ccc(Nc3ncnc4sc5cc(CCN6CCSCC6)ccc5c34)cc2Cl)c1
4,≤ 5 µM,OC[C@H](O)c1ccc2c(c1)sc1ncnc(Nc3ccc(OCc4cccc(F)c4)c(Cl)c3)c12
5,≤ 5 µM,O=C(Cc1ccc2c(c1)sc1ncnc(Nc3ccc(OCc4cccc(F)c4)c(Cl)c3)c12)NCCOCCO
6,≤ 5 µM,CN(C)[C@H]1CCN(C(=O)CCc2ccc3c(c2)sc2ncnc(Nc4ccc(OCc5cccc(F)c5)c(Cl)c4)c23)C1
7,≤ 5 µM,CN1CCN(C(=O)/C=C/c2ccc3c(c2)sc2ncnc(Nc4ccc(OCc5cccc(F)c5)c(Cl)c4)c23)CC1
8,≤ 5 µM,CN1CCN(CCc2ccc3c(c2)sc2ncnc(Nc4ccc5c(cnn5Cc5cccc(F)c5)c4)c23)CC1
9,≤ 5 µM,OC[C@H](O)COc1ccc2c(c1)sc1ncnc(Nc3ccc(OCc4cccc(F)c4)c(Cl)c3)c12
10,≤ 5 µM,Fc1cccc(COc2ccc(Nc3ncnc4sc5cc(CCBr)ccc5c34)cc2Cl)c1
11,≤ 5 µM,CO[C@H]1CCN(CCc2ccc3c(c2)sc2ncnc(Nc4ccc(OCc5cccc(F)c5)c(Cl)c4)c23)C1
12,≤ 5 µM,OCCc1ccc2c(c1)sc1ncnc(Nc3ccc4c(cnn4Cc4cccc(F)c4)c3)c12
13,≤ 5 µM,OC[C@@H](O)c1ccc2c(c1)sc1ncnc(Nc3ccc(OCc4cccc(F)c4)c(Cl)c3)c12
14,≤ 5 µM,Clc1cc(Nc2ncnc3sc4cc(CCBr)ccc4c23)ccc1OCc1ccccn1
15,≤ 5 µM,O=C(Cc1ccc2c(c1)sc1ncnc(Nc3ccc4c(cnn4Cc4cccc(F)c4)c3)c12)NC1CN2CCC1CC2 (centres undefined)
16,≤ 5 µM,CN1CCN(CCc2ccc3c(c2)sc2ncnc(Nc4ccc(OCc5cccc(F)c5)c(Cl)c4)c23)CC1
17,≤ 5 µM,COC(=O)/C=C/c1ccc2c(c1)sc1ncnc(Nc3ccc(OCc4cccc(F)c4)c(Cl)c3)c12
18,≤ 5 µM,COC[C@H]1CCCN1CCc1ccc2c(c1)sc1ncnc(Nc3ccc(OCc4cccc(F)c4)c(Cl)c3)c12
19,≤ 5 µM,OC[C@@H](O)[C@H](O)c1ccc2c(c1)sc1ncnc(Nc3ccc(OCc4cccc(F)c4)c(Cl)c3)c12
20,≤ 5 µM,COCCNCCc1ccc2c(c1)sc1ncnc(Nc3ccc(OCc4ccccn4)c(Cl)c3)c12
21,≤ 5 µM,Fc1cccc(COc2ccc(Nc3ncnc4sc5cc(OCCCN6CCOCC6)ccc5c34)cc2Cl)c1

row,IC50,SMILES
1,≤ 5 µM,O=C(Cc1ccc2c(c1)sc1ncnc(Nc3ccc(OCc4cccc(F)c4)c(Cl)c3)c12)NCCN1CCOCC1
2,≤ 5 µM,Fc1cccc(COc2ccc(Nc3ncnc4sc5cc(OCCN6CCCC6)ccc5c34)cc2Cl)c1
3,≤ 5 µM,CS(=O)(=O)CCNC(=O)Cc1ccc2c(c1)sc1ncnc(Nc3ccc4c(cnn4Cc4cccc(F)c4)c3)c12
4,≤ 5 µM,NS(=O)(=O)OCCc1ccc2c(c1)sc1ncnc(Nc3ccc(OCc4ccccn4)c(Cl)c3)c12
5,≤ 5 µM,OC[C@H](O)[C@@H](O)c1ccc2c(c1)sc1ncnc(Nc3ccc(OCc4cccc(F)c4)c(Cl)c3)c12
6,≤ 5 µM,OCCc1ccc2c(c1)sc1ncnc(Nc3ccc(OCc4cccc(F)c4)c(Cl)c3)c12
7,≤ 5 µM,Fc1cccc(COc2ccc(Nc3ncnc4sc5cc(CCN6CCCCC6)ccc5c34)cc2Cl)c1
8,≤ 5 µM,CCN1CCN(C(=O)/C=C/c2ccc3c(c2)sc2ncnc(Nc4ccc(OCc5cccc(F)c5)c(Cl)c4)c23)CC1
9,≤ 5 µM,OC[C@@H](O)COc1ccc2c(c1)sc1ncnc(Nc3ccc(OCc4cccc(F)c4)c(Cl)c3)c12
10,≤ 5 µM,OC[C@@H](O)c1ccc2c(c1)sc1ncnc(Nc3ccc4c(cnn4Cc4cccc(F)c4)c3)c12
11,≤ 5 µM,OCCc1ccc2c(c1)sc1ncnc(Nc3ccc(OCc4ccccn4)c(Cl)c3)c12
12,≤ 5 µM,Fc1cccc(COc2ccc(Nc3ncnc4sc5cc(CCN6CCCC6)ccc5c34)cc2Cl)c1
13,≤ 5 µM,O=C(Cc1ccc2c(c1)sc1ncnc(Nc3ccc(OCc4ccccn4)c(Cl)c3)c12)N1CCC[C@@H]1CO
14,≤ 5 µM,O=C(/C=C/c1ccc2c(c1)sc1ncnc(Nc3ccc(OCc4cccc(F)c4)c(Cl)c3)c12)N1CCOCC1
15,≤ 5 µM,OCC(O)C(O)c1ccc2c(c1)sc1ncnc(Nc3ccc(OCc4cccc(F)c4)c(Cl)c3)c12 (centres undefined)
16,≤ 5 µM,CN1CCN(CCc2ccc3c(c2)sc2ncnc(Nc4ccc(OCc5ccccn5)c(Cl)c4)c23)CC1
17,≤ 5 µM,Fc1cccc(Cn2ncc3cc(Nc4ncnc5sc6cc(CCN7CCOCC7)ccc6c45)ccc32)c1
18,≤ 5 µM,OCC(CO)c1ccc2c(c1)sc1ncnc(Nc3ccc(OCc4cccc(F)c4)c(Cl)c3)c12
19,≤ 5 µM,OCC(O)c1ccc2c(c1)sc1ncnc(Nc3ccc4c(cnn4Cc4cccc(F)c4)c3)c12 (centres undefined)
20,≤ 5 µM,COCCNCCc1ccc2c(c1)sc1ncnc(Nc3ccc(OCc4cccc(F)c4)c(Cl)c3)c12
21,≤ 5 µM,OCCN(CCO)CCc1ccc2c(c1)sc1ncnc(Nc3ccc(OCc4cccc(F)c4)c(Cl)c3)c12

row,IC50,SMILES
1,≤ 5 µM,CN1CCN(c2ccc3c(c2)sc2ncnc(Nc4ccc(OCc5ccccn5)c(Cl)c4)c23)CC1
2,≤ 5 µM,CN(C)[C@H]1CCN(CCc2ccc3c(c2)sc2ncnc(Nc4ccc(OCc5cccc(F)c5)c(Cl)c4)c23)C1
3,≤ 5 µM,COCCN(CCOC)CCc1ccc2c(c1)sc1ncnc(Nc3ccc(OCc4cccc(F)c4)c(Cl)c3)c12
4,≤ 5 µM,CN(C)CCNC(=O)CCc1ccc2c(c1)sc1ncnc(Nc3ccc(OCc4cccc(F)c4)c(Cl)c3)c12
5,≤ 5 µM,OCCc1ccc2c(c1)sc1ncnc(Nc3ccc4c(cnn4Cc4ccccn4)c3)c12
6,≤ 5 µM,OCC(O)c1ccc2c(c1)sc1ncnc(Nc3ccc(OCc4cccc(F)c4)c(Cl)c3)c12 (centres undefined)
7,≤ 5 µM,OC[C@H](O)c1ccc2c(c1)sc1ncnc(Nc3ccc4c(cnn4Cc4cccc(F)c4)c3)c12
8,≤ 5 µM,Fc1cccc(Cn2ncc3cc(Nc4ncnc5sc6cc(N7CCNCC7)ccc6c45)ccc32)c1
9,≤ 5 µM,Fc1cccc(COc2ccc(Nc3ncnc4sc5cc(CCN6CCNCC6)ccc5c34)cc2Cl)c1
10,≤ 5 µM,OC[C@H](O)COc1ccc2c(c1)sc1ncnc(Nc3ccc(OCc4ccccn4)c(Cl)c3)c12
11,≤ 5 µM,OCC(O)c1ccc2c(c1)sc1ncnc(Nc3ccc(OCc4ccccn4)c(Cl)c3)c12 (centres undefined)
12,≤ 5 µM,OCCNCCc1ccc2c(c1)sc1ncnc(Nc3ccc(OCc4cccc(F)c4)c(Cl)c3)c12
13,≤ 5 µM,CS(=O)(=O)CCNCCc1ccc2c(c1)sc1ncnc(Nc3ccc(OCc4ccccn4)c(Cl)c3)c12
14,≤ 5 µM,COCCN1CCN(CCc2ccc3c(c2)sc2ncnc(Nc4ccc(OCc5cccc(F)c5)c(Cl)c4)c23)CC1
15,≤ 5 µM,COCCN(CCOC)C(=O)Cc1ccc2c(c1)sc1ncnc(Nc3ccc(OCc4ccccn4)c(Cl)c3)c12
16,≤ 5 µM,O=C(Cc1ccc2c(c1)sc1ncnc(Nc3ccc(OCc4cccc(F)c4)c(Cl)c3)c12)N1CCOCC1
17,≤ 5 µM,Fc1cccc(COc2ccc(Nc3ncnc4sc5cc(OCCN6CCOCC6)ccc5c34)cc2Cl)c1
18,≤ 5 µM,COC[C@@H]1CCCN1C(=O)Cc1ccc2c(c1)sc1ncnc(Nc3ccc(OCc4ccccn4)c(Cl)c3)c12
19,≤ 5 µM,CS(=O)(=O)CCNC(=O)CCc1ccc2c(c1)sc1ncnc(Nc3ccc(OCc4cccc(F)c4)c(Cl)c3)c12
20,≤ 5 µM,O=C(Cc1ccc2c(c1)sc1ncnc(Nc3ccc(OCc4cccc(F)c4)c(Cl)c3)c12)N1CCNCC1
21,≤ 5 µM,CCNCCc1ccc2c(c1)sc1ncnc(Nc3ccc(OCc4ccccn4)c(Cl)c3)c12

row,SMILES,IC50
1,CN1CCN(C(=O)Cc2ccc3c(c2)sc2ncnc(Nc4ccc5c(cnn5Cc5cccc(F)c5)c4)c23)CC1,≤ 5 µM
2,CN1CCN(C(=O)Cc2ccc3c(c2)sc2ncnc(Nc4ccc(OCc5cscn5)c(Cl)c4)c23)CC1,≤ 5 µM
3,CN1CCN(C(=O)Cc2ccc3c(c2)sc2ncnc(Nc4ccc(OCc5cccc(F)c5)c(Cl)c4)c23)CC1,≤ 5 µM
4,CN(C)[C@@H]1CCN(C(=O)Cc2ccc3c(c2)sc2ncnc(Nc4ccc(OCc5cscn5)c(Cl)c4)c23)C1,≤ 5 µM
5,CN(C)[C@H]1CCN(C(=O)Cc2ccc3c(c2)sc2ncnc(Nc4ccc(OCc5cscn5)c(Cl)c4)c23)C1,≤ 5 µM
6,CN(C)[C@H]1CCN(C(=O)Cc2ccc3c(c2)sc2ncnc(Nc4ccc5c(cnn5Cc5cccc(F)c5)c4)c23)C1,≤ 5 µM

# — the Kinase Knowledgebase extract (Sharma et al. 2016)
